# Assay results: a melting point compilation (Tetko et al.; mined from patent text by program, amines drawn as free bases though some values may be those of a salt)
row,melting point [°C],SMILES
1,147 to 148,COc1cc(CCCC2OC(=O)NC2=O)ccc1O (stereo unspecified)
2,64,CCOC(=O)COC(=O)COc1ccc(OCC(=O)OCC)cc1NC(=O)c1ccc(OCCCCc2ccccc2)cc1
3,49 to 51,CC(CNS(=O)(=O)c1ccccc1)c1ccc(OCC(=O)O)c(F)c1 (stereo unspecified)
4,248 to 251,CCOC(=O)C1=C(NC(C)=O)Oc2cc(O)ccc2C1c1cnc2ccccc2c1 (stereo unspecified)
5,112,CCc1cc(-c2[nH]c3ccccc3c2C)cc(CC)c1O
6,149 to 151,O=C(NCCOc1ccc(CC(Oc2ccccc2)C(=O)O)cc1)c1ccc(-c2ccccn2)cc1 (stereo unspecified)
7,56 to 57,CC(C)(C)OC(=O)C=Cc1cc2ccccc2o1
8,88 to 89,N#Cc1ccc(N2CCC(N3CCCC3)CC2)cc1
9,130 to 135,CC1CCN(Cc2cccc(OCCCNS(=O)(=O)CCNc3ccc(Cl)c(Cl)c3)c2)CC1
10,96 to 99,Brc1c[nH]c(CN2CCCC2)c1
11,120 to 123,NC(c1ccccc1)c1ccc(OCCCCOc2ccc(C(N)c3ccccc3)cc2)cc1 (stereo unspecified)
12,166 to 167,CC(C)(C)C(=O)Nc1nc(O)c2cc(C=CCOC3CCCCO3)cnc2n1 (stereo unspecified)
13,154,O=c1c(-c2nc3ccccc3[nH]2)coc2ccccc12
14,166 to 168,COCCOc1ccccc1S(=O)(=O)NC(=O)Nc1nc(Cl)cc(OC)n1
15,186 to 188,CC(C)C1(C)N=C(c2ccccc2C(=O)O)N(O)C1=O (stereo unspecified)
16,135 to 137,Cc1ccccc1-n1ccc2c(NCCCO)nc3c(C)cccc3c21
17,181 to 182,CCOC(=O)C1Cc2ccc(N(C)C)cc2NC1=O (stereo unspecified)
18,220 to 224,O=C(c1cc2cc([N+](=O)[O-])ccc2[nH]1)N1CCC(Cc2ccccc2)CC1
19,92.2 to 93.6,CCCCCS(=O)(=O)NC(=O)CCc1ccc(OCCOC)cc1Oc1ncc(Cl)cc1Cl
20,118 to 123,CCOC(=O)CN(CP(=O)(ONC1CCCCC1)ONC1CCCCC1)C(=O)C(F)(F)F
21,223 to 224,CC1(C)CSCC(C)(C)c2[nH]c(-c3ccccc3)nc21
22,130 to 138,Cc1noc(NS(=O)(=O)c2ccccc2-c2ccc(-c3ncco3)cc2CN(C)C(=O)C(C)(C)c2ccccc2)c1C
23,237 to 238,CC1(c2ccc(Br)cc2)C(=O)Nc2cc(Cl)cc(Cl)c2C1=O (stereo unspecified)
24,93 to 94,COc1ccc(CC(=O)c2cc(OC)cc(OC)c2)cc1

row,melting point [°C],SMILES
1,180 to 183,COC(=O)c1cccc(-c2cn(C)cc(-c3cccc(C)c3)c2=O)c1
2,200 to 201,CN1CCN(c2cccc3c2C[C@H](NC(=O)c2ccc(Br)cc2)CC3)CC1
3,76 to 77,Cc1cc2c(cc1CO)CCC(CCN1CCCC1)=C2
4,141 to 142,COc1cc(COc2cc(CC#N)n(-c3ccccc3)n2)ccc1OCc1nc(-c2ccco2)oc1C
5,135 to 145,CC(=CC(=O)O)c1ccc2[nH]cc(-c3cc(C(C)(C)C)cc(C(C)(C)C)c3OCC(F)F)c2c1
6,257 to 260,N#Cc1ccccc1Cn1nnc2cc3c(cc2c1=O)OC1CCCN1C3=O (stereo unspecified)
7,167 to 169,CCOC(=O)/C=C/c1c(-c2ccc(F)cc2)n(C(C)C)c(=O)c2ccccc12
8,204 to 207,Cc1ncc(CN2CCCNC2=C[N+](=O)[O-])s1
9,108 to 110,COc1ccc(C2C(C(=O)/C=C/c3ccccc3)C(=O)CC(c3ccccc3)C2[N+](=O)[O-])cc1 (stereo unspecified)
10,80,Cc1ccc(S(=O)(=O)NC(=O)CC2(c3ccc(OCc4ccc5ccccc5n4)cc3)CCCC2)cc1
11,132 to 134,CC(C)n1c(C(=O)Cl)c(-c2ccc(F)cc2)c2ccccc2c1=O
12,181 to 182,Nc1cc([N+](=O)[O-])c2c(c1N)CCCC2
13,155 to 157,Cn1c(-c2cc(C(F)(F)F)nn2-c2ncccc2Cl)nc2c(Cl)cccc2c1=O
14,242 to 245,COc1cc2c(cc1Nc1ncc(Cl)c(Nc3ccc(N4CCOCC4)cc3OC)n1)CCOC(=O)N2C
15,56 to 60,Clc1cccc(CC[C@H]2CN(Cc3ccccc3)CCN2Cc2ccccc2)c1
16,125 to 130,Oc1ccc(-c2nc(-c3cccs3)c[nH]2)cc1Br
17,119 to 121,CCC(Oc1c(C(C)C)cccc1C(C)C)C(=O)OC1CC(O)C=C2C=CC(C)C(CCC3CC(O)CC(=O)O3)C21 (mixture of isomers)
18,178 to 180,CC(CCCNc1ccccc1)C1CC=C2C3=C(CCC21C)C1(C)CCC(O)C(C)(C)C1CC3 (stereo unspecified)
19,173 to 175,NNC(=O)c1ncccn1
20,70 to 71,COc1ccc(C=CCO)cc1OC
21,76 to 77,c1ccc(CSc2cn3ccsc3n2)cc1
22,200 to 202,CCc1[nH]n(C2CCCC2)c2nc(SC)nc(=O)c1-2
23,166 to 168,Cc1cccc(C#CC2=CC(=NO)CCC2)n1
24,65 to 68,COC(=O)c1ccc(OCCNC(=O)C2Cc3ccccc3N2S(=O)(=O)c2ccc(-c3ccc(F)cc3F)cc2)cc1F (stereo unspecified)

row,melting point [°C],SMILES
1,293 to 295,Oc1cc2c(cc1-c1nc3cc(-c4ccccc4)ccc3o1)oc1ccccc12
2,296 to 298,Cc1cccc2c(=O)n(C3CCC(=O)NC3=O)c(C)nc12 (stereo unspecified)
3,179 to 180,CCCCn1c(=O)c2cc(C(=O)OCC)cn2c2cc(Cl)c(Cl)cc21
4,115 to 116,CCOC(=O)N1CCC(Nc2ccc(F)cc2[N+](=O)[O-])CC1
5,115 to 116,O=C(SC(Cn1ccnc1)c1ccc(Cl)cc1Cl)c1ccccc1 (stereo unspecified)
6,127 to 129,O=C1C(=O)c2ccccc2C2=C1SCC1(CCN(CCCOc3ccccc3)CC1)O2
7,96 to 98,COc1cccc2c1cc(C(=O)OCc1ccccc1)n2CC(=O)OC(C)(C)C
8,148 to 152,Cc1nc(-c2ccc(OC3CCCCO3)cc2)cc(-c2c(Cl)ccc(Cl)c2Cl)c1C#N (stereo unspecified)
9,165 to 168,O=C1N[C@H](C(=O)O)CSCCCCCCCCC1CS (stereo partly specified)
10,304 to 306,O=C1c2ccccc2-c2c1c(Cl)nc1ccc(Br)cc21
11,197 to 200,CC(C)c1cccc(C(C)C)c1NC(=O)CS(=O)(=O)CCN1CCN(c2ccccc2)CC1
12,> 300,COc1ccc(-c2[nH]nc3c2C(=O)c2c(NC(=O)CN4CCC(O)CC4)cccc2-3)cc1
13,119 to 121,CC(=O)c1ccc(NS(C)(=O)=O)c(Oc2ccc(Cl)cc2Cl)c1
14,130,O=C(C#Cc1ccc(Cl)cc1Cl)Nc1ccc2oc(CCN3CCCC3)nc2c1
15,97 to 98,O=C(NCc1ccc([N+](=O)[O-])cc1)C(F)(F)F
16,55 to 58,CCCCCCCCCCCc1coc(N)n1
17,> 250,CN1CCN(c2ncnc3c(NC(=O)c4c(Cl)cccc4Cl)cccc23)C1=O
18,120 to 121,COc1cc(C(=O)CCCc2ccccc2)cc([N+](=O)[O-])c1O
19,178 to 180,OCc1cc2cc3c(cc2nc1I)OCCO3
20,64 to 66,CCCCS(=O)(=O)N(C)CCN1CC(c2ccc3c(c2)OCO3)C(C(=O)O)C1c1ccc(OC)cc1 (stereo unspecified)
21,127 to 128,O=C(O)CCc1cn(Cc2ccc(OCc3cccs3)cc2)cc1-c1ccccc1
22,321 to 323,N#Cc1c2ccccc2c(-c2cc(Br)c(O)c(Br)c2)c2c1sc1ccccc12
23,166 to 168,C/C(=N\OC(=O)c1ccc(CN2CCOCC2)cc1)[C@H]1CC[C@H]2[C@@H]3CCC4=CC(=O)CC[C@]4(C)[C@H]3CC[C@]12C
24,73 to 74,CCOc1nccc(Cl)c1NC(=O)OC(C)(C)C

row,melting point [°C],SMILES
1,146 to 148,O=c1cc(C(F)(F)F)cnn1-c1c(F)cc(Cl)c(O)c1[N+](=O)[O-]
2,186 to 188,CSC1C(=O)Nc2c(C(=O)c3ccc(Cl)cc3)cccc21 (stereo unspecified)
3,163 to 164,N#Cc1cc([N+](=O)[O-])ccc1Oc1ccc(Cl)cc1
4,65 to 68,COc1ccc(CCN2C=CC=C3C2=Nc2cc(OC)ccc2S(=O)(=O)N3C)cc1
5,178 to 180,COC(=O)c1nc2c(c(-c3cccs3)nn2-c2ccccc2)c(N)c1C(=O)OC
6,162 to 164,CC(C)(C)[Si](C)(C)Oc1ccc2c(c1)OC(O)c1c-2sc2cc(O[Si](C)(C)C(C)(C)C)ccc12 (stereo unspecified)
7,197 to 198,O=c1[nH]c2ccc([N+](=O)[O-])cc2c(O)c1[N+](=O)[O-]
8,153 to 155,CCOC(=O)Cc1cnc(NS(C)(=O)=O)s1
9,177 to 179,CCN[C@H]1C[C@H](CCCOCCOC)S(=O)(=O)c2sc(S(N)(=O)=O)cc21 (relative stereo)
10,286 to 288,O=S1(=O)c2ccccc2N(c2ccc(-c3nc4ccccc4n3-c3ccccc3)cc2)c2ccccc21
11,201 to 203,CC(C)(C)S(=O)(=O)N[C@H]1CC[C@H](C(=O)O)CC1
12,132 to 134,COc1cc(C(C)C)c2c(c1)S(=O)(=O)N(COC(=O)c1sccc1C)C2=O
13,158 to 159,Cc1cnc2c(S(=O)(=O)Cl)cccc2c1
14,215 to 216,CCOc1nc(F)cc2nc(SSc3nc4cc(F)nc(OCC)n4n3)nn12
15,96.5 to 98.5,CCNc1ccc(-c2nnsc2-c2ccc(NCC)cc2)cc1
16,119 to 121,CCCc1c(O)c(C(C)=O)cc(Cl)c1OCCCOc1c(C(C)=O)ccc(OCC(=O)O)c1CCC
17,214 to 216,Nc1ccc2[nH]c(=O)cc(CCN3CCC(c4c[nH]c5ccccc45)CC3)c2c1
18,98 to 100,O=C1OCCC1Oc1cc(F)ccc1[N+](=O)[O-] (stereo unspecified)
19,220 to 224,NC(=O)c1cccc(OC2C(C(=O)O)=CC=CN2Cc2ccccc2Cl)c1 (stereo unspecified)
20,97,CCc1ccc(CCc2ccc(-c3ccc(OC(F)(F)F)cc3)cc2)cc1
21,179 to 180,O=C(NC1=NCCCN1)Nc1c(Cl)cccc1Cl
22,136,NC(=O)c1ccc(F)c2c1OCC(N(CCCc1c[nH]c3c(F)cc(F)cc13)C1CCC1)C2 (stereo unspecified)
23,95.2,CCOC(=O)N1CC[C@H](N(Cc2ccccc2)Cc2ccccc2)[C@H](OC)C1 (relative stereo)

row,SMILES,melting point [°C]
1,CCN(CC)C(=O)Cc1c(-c2ccc(F)cc2)nc2c(C)cc(C)nn12,139 to 143
